Source: patent US20150299188A1, “HETEROCYCLIC COMPOUND” (priority 2012, published 2015)

system: FLAP (5-lipoxygenase activating protein); assay: In vitro binding test: displacement of [3H]-7-chloro-3-(5-((3-fluoropyridin-2-yl)methoxy)-2-methylphenyl)-3,4-dihydroquinazolin-2(1H)-one from Sf9 microsome fractions; set-up: species or system human and mouse; conditions: Sf9 microsome fractions expressing FLAP; 100% = radioligand binding with 10 μM sodium 3-(3-(tert-butylsulfanyl)-1-(4-chlorobenzyl)-5-isopropyl-1H-indol-2-yl)-2,2-dimethylpropanoate, 0% = DMSO; test compound concentration not given
How it was run: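 Sf9 microsomes expressing human or mouse FLAP (2 μg/mL) preincubated with compound 10 min at room temperature, then 120 nM tritiated quinazolinone ligand added for 60 min; buffer 100 mM Tris-HCl pH 7.5 with NaCl, EDTA, DTT, glycerol, Tween20. Bound ligand filtered and counted by scintillation; 10 μM indole propanoate defines 100% inhibition, DMSO 0%.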

Compound	inhibitory rate (%)
Cc1ccc(OCc2ncccc2F)cc1-n1c(=O)[nH]c2ccccc2c1=O [Example 337, 3-(5-((3-fluoropyridin-2-yl)methoxy)-2-methylphenyl)quinazoline-2,4(1H,3H)-dione]	104
Cc1ccc(OCc2ncccc2F)cc1N1Cc2c(Cl)cc(C(=O)NC3CC3)cc2NC1=O [Example 299, 5-chloro-N-cyclopropyl-3-(5-((3-fluoropyridin-2-yl)methoxy)-2-methylphenyl)-2-oxo-1,2,3,4-tetrahydroquinazoline-7-carboxamide]	113
Cc1cc2c(cc1N1Cc3cccnc3NC1=O)OC(c1ncccc1F)CC2 (stereo not shown) [Example 40, 3-(2-(3-fluoropyridin-2-yl)-6-methyl-3,4-dihydro-2H-chromen-7-yl)-3,4-dihydropyrido[2,3-d]pyrimidin-2(1H)-one]	108
Cc1ccc(OCc2ncccc2F)cc1N1Cc2nn(C)cc2NC1=O [Example 250, 6-(5-((3-fluoropyridin-2-yl)methoxy)-2-methylphenyl)-2-methyl-2,4,6,7-tetrahydro-5H-pyrazolo[4,3-d]pyrimidin-5-one]	70
Cc1ccc(OCc2ncccc2F)cc1N1Cc2c(Cl)ncnc2NC1=O [Example 318, 5-chloro-3-(5-((3-fluoropyridin-2-yl)methoxy)-2-methylphenyl)-3,4-dihydropyrimido[4,5-d]pyrimidin-2(1H)-one]	62
CC(C)(O)c1ccc2c(c1)NC(=O)N(c1cc(OCc3c(F)cccc3F)ccc1F)C2 [Example 233, 3-(5-((2,6-difluorobenzyl)oxy)-2-fluorophenyl)-7-(2-hydroxypropan-2-yl)-3,4-dihydroquinazolin-2(1H)-one]	87
N#Cc1ccc(OCc2ncccc2F)cc1N1Cc2c(Cl)cccc2NC1=O [Example 278, 2-(5-chloro-2-oxo-1,4-dihydroquinazolin-3(2H)-yl)-4-((3-fluoropyridin-2-yl)methoxy)benzonitrile]	96
Cc1ccc(OCc2ncccc2F)cc1N1Cc2c(Cl)cccc2N(CC(N)=O)C1=O [Example 286, 2-(5-chloro-3-(5-((3-fluoropyridin-2-yl)methoxy)-2-methylphenyl)-2-oxo-3,4-dihydroquinazolin-1(2H)-yl)acetamide]	112
Cc1ccc(OCc2ncccc2F)cc1-n1c(=O)[nH]c2ccncc2c1=O [Example 369, 3-(5-((3-fluoropyridin-2-yl)methoxy)-2-methylphenyl)pyrido[4,3-d]pyrimidine-2,4(1H,3H)-dione]	106
O=c1[nH]c2cn(CC3CC3)nc2c(=O)n1-c1cc(OCc2ncccc2F)ccc1Br [Example 358, 6-(2-bromo-5-((3-fluoropyridin-2-yl)methoxy)phenyl)-2-(cyclopropylmethyl)-2H-pyrazolo[4,3-d]pyrimidine-5,7(4H,6H)-dione]	101
CCCCOC(=O)/C=C/c1ccc(OCc2ncccc2F)cc1N1Cc2ccccc2NC1=O [Example 225, butyl (2E)-3-(4-((3-fluoropyridin-2-yl)methoxy)-2-(2-oxo-1,4-dihydroquinazolin-3(2H)-yl)phenyl)acrylate]	100
Cc1ccc(OCc2ncccc2F)cc1N1Cc2nn(CC(F)(F)F)cc2NC1=O [Example 263, 6-(5-((3-fluoropyridin-2-yl)methoxy)-2-methylphenyl)-2-(2,2,2-trifluoroethyl)-2,4,6,7-tetrahydro-5H-pyrazolo[4,3-d]pyrimidin-5-one]	97
Cc1ccc(OCc2ncccc2F)cc1N1Cc2c(Cl)cccc2N(C)C1=O [Example 291, 5-chloro-3-(5-((3-fluoropyridin-2-yl)methoxy)-2-methylphenyl)-1-methyl-3,4-dihydroquinazolin-2(1H)-one]	94
Cc1ccc(OCc2c(F)cccc2F)cc1N1Cc2cnn(C)c2NC1=O [Example 311, 5-(5-((2,6-difluorobenzyl)oxy)-2-methylphenyl)-1-methyl-1,4,5,7-tetrahydro-6H-pyrazolo[3,4-d]pyrimidin-6-one]	69
CC(C)(O)c1ccc2c(c1)NC(=O)N(c1cc(OCc3c(F)cccc3F)ccc1Cc1ccccn1)C2 [Example 316, 3-(5-((2,6-difluorobenzyl)oxy)-2-(pyridin-2-ylmethyl)phenyl)-7-(2-hydroxypropan-2-yl)-3,4-dihydroquinazolin-2(1H)-one]	50
Cc1ccc(OCc2ncccc2F)cc1N1Cc2c(Cl)cc(C(=O)O)cc2NC1=O [Example 292, 5-chloro-3-(5-((3-fluoropyridin-2-yl)methoxy)-2-methylphenyl)-2-oxo-1,2,3,4-tetrahydroquinazoline-7-carboxylic acid]	107
Cc1ccc(OCc2c(F)cccc2F)cc1N1Cc2[nH]ncc2NC1=O [Example 309, 6-(5-((2,6-difluorobenzyl)oxy)-2-methylphenyl)-1,4,6,7-tetrahydro-5H-pyrazolo[4,3-d]pyrimidin-5-one]	51
O=C1Nc2cc(CO)ccc2CN1c1cc(OCc2c(F)cccc2F)ccc1Cl [Example 218, 3-(2-chloro-5-((2,6-difluorobenzyl)oxy)phenyl)-7-(hydroxymethyl)-3,4-dihydroquinazolin-2(1H)-one]	95
Cc1cc(I)c(OCc2ncccc2F)cc1N1Cc2ccc(Cl)cc2NC1=O [Example 304, 7-chloro-3-(5-((3-fluoropyridin-2-yl)methoxy)-4-iodo-2-methylphenyl)-3,4-dihydroquinazolin-2(1H)-one]	64

More lines, now with the values ahead:

inhibitory rate (%)	Compound
103	O=C(c1cc2c(c(C3CC3)n1)CN(c1cc3c(cc1Cl)CCC(c1ncccc1F)O3)C(=O)N2)N1CC(O)C1 (stereo not shown) [Example 112, 3-(6-chloro-2-(3-fluoropyridin-2-yl)-3,4-dihydro-2H-chromen-7-yl)-5-cyclopropyl-7-((3-hydroxyazetidin-1-yl)carbonyl)-3,4-dihydropyrido[4,3-d]pyrimidin-2(1H)-one]
95	Cc1cc2c(cc1N1Cc3c(C4CC4)cnc(-c4cnn(C)c4)c3NC1=O)OC(c1ncccc1F)CC2 (stereo not shown) [Example 162, 5-cyclopropyl-3-(2-(3-fluoropyridin-2-yl)-6-methyl-3,4-dihydro-2H-chromen-7-yl)-8-(1-methyl-1H-pyrazol-4-yl)-3,4-dihydropyrido[3,4-d]pyrimidin-2(1H)-one]
89	O=C1Nc2c(C3CC3)ncc(Cl)c2CN1c1cc2c(cc1Cl)CCC(c1ncccc1F)O2 (stereo not shown) [Example 143, 5-chloro-3-(6-chloro-2-(3-fluoropyridin-2-yl)-3,4-dihydro-2H-chromen-7-yl)-8-cyclopropyl-3,4-dihydropyrido[3,4-d]pyrimidin-2(1H)-one]
95	O=C1CNCCN1c1cc2c(c(C3CC3)n1)CN(c1cc3c(cc1Cl)CCC(c1ncccc1F)O3)C(=O)N2 (stereo not shown) [Example 125, 3-(6-chloro-2-(3-fluoropyridin-2-yl)-3,4-dihydro-2H-chromen-7-yl)-5-cyclopropyl-7-(2-oxopiperazin-1-yl)-3,4-dihydropyrido[4,3-d]pyrimidin-2(1H)-one]
102	O=C1Nc2c(N3CCOCC3)ncc(Cl)c2CN1c1cc2c(cc1Cl)CCC(c1ncccc1F)O2 (stereo not shown) [Example 81, 5-chloro-3-(6-chloro-2-(3-fluoropyridin-2-yl)-3,4-dihydro-2H-chromen-7-yl)-8-(morpholin-4-yl)-3,4-dihydropyrido[3,4-d]pyrimidin-2(1H)-one]
115	Cc1cc2c(cc1N1Cc3c(Cl)ccnc3NC1=O)OC(c1ncccc1F)CC2 (stereo not shown) [Example 36, 5-chloro-3-(2-(3-fluoropyridin-2-yl)-6-methyl-3,4-dihydro-2H-chromen-7-yl)-3,4-dihydropyrido[2,3-d]pyrimidin-2(1H)-one]
94	O=C1Nc2cc(-c3noc(=O)[nH]3)nc(C3CC3)c2CN1c1cc2c(cc1Cl)CCC(c1ncccc1F)O2 (stereo not shown) [Example 103, 3-(6-chloro-2-(3-fluoropyridin-2-yl)-3,4-dihydro-2H-chromen-7-yl)-5-cyclopropyl-7-(5-oxo-4,5-dihydro-1,2,4-oxadiazol-3-yl)-3,4-dihydropyrido[4,3-d]pyrimidin-2(1H)-one]
98	Cc1cc2c(cc1N1Cc3ccc(CO)cc3NC1=O)OC(c1ncccc1F)CC2 (stereo not shown) [Example 185, 3-(2-(3-fluoropyridin-2-yl)-6-methyl-3,4-dihydro-2H-chromen-7-yl)-7-(hydroxymethyl)-3,4-dihydroquinazolin-2(1H)-one]
88	O=C1Nc2cc(OC(F)F)nc(C3CC3)c2CN1c1cc2c(cc1Cl)CCC(c1ncccc1F)O2 (stereo not shown) [Example 18, 3-(6-chloro-2-(3-fluoropyridin-2-yl)-3,4-dihydro-2H-chromen-7-yl)-5-cyclopropyl-7-(difluoromethoxy)-3,4-dihydropyrido[4,3-d]pyrimidin-2(1H)-one]
93	Cc1cc2c(cc1N1Cc3c(Cl)cnc(-c4ccnn4C)c3NC1=O)OC(c1ncccc1F)CC2 (stereo not shown) [Example 160, 5-chloro-3-(2-(3-fluoropyridin-2-yl)-6-methyl-3,4-dihydro-2H-chromen-7-yl)-8-(1-methyl-1H-pyrazol-5-yl)-3,4-dihydropyrido[3,4-d]pyrimidin-2(1H)-one]
100	O=C1COCCN1c1cc2c(c(C3CC3)n1)CN(c1cc3c(cc1Cl)CCC(c1ncccc1F)O3)C(=O)N2 (stereo not shown) [Example 120, 3-(6-chloro-2-(3-fluoropyridin-2-yl)-3,4-dihydro-2H-chromen-7-yl)-5-cyclopropyl-7-(3-oxomorpholin-4-yl)-3,4-dihydropyrido[4,3-d]pyrimidin-2(1H)-one]
101	Cc1cc2c(cc1N1Cc3c(cncc3C3CC3)NC1=O)OC(c1ncccc1F)CC2 (stereo not shown) [Example 26, 5-cyclopropyl-3-(2-(3-fluoropyridin-2-yl)-6-methyl-3,4-dihydro-2H-chromen-7-yl)-3,4-dihydropyrido[3,4-d]pyrimidin-2(1H)-one]
